Test [1] addresses Beta-lactamase AH27 CTX-M-15 (Klebsiella pneumoniae) (UniProt Q2PUH3). The test is described as follows: Ratio of Kcat to Km for Klebsiella pneumoniae AH27 CTX-M-15 beta-lactamase. Set-up: unit not given here.
Test [2] addresses T1, Extended spectrum beta-lactamase CTX-M-71 (Klebsiella pneumoniae) (UniProt C8YUV9).
T1 sequence (whole entry): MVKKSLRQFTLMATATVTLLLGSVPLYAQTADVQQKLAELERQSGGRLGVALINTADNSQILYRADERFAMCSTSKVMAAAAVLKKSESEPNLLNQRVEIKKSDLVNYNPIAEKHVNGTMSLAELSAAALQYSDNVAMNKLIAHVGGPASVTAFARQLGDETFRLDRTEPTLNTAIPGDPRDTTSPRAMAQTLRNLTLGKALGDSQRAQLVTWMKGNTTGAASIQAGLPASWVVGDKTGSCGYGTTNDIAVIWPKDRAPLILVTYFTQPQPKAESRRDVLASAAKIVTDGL
The test is described as follows: Ratio of Kcat to Km for Klebsiella pneumoniae AH24-270 CTX-M-71 beta-lactamase. Set-up: unit not given here.

For the compound `CO/N=C(\C(=O)N[C@@H]1C(=O)N2C(C(=O)O)=C(COC(N)=O)CS[C@H]12)c1ccco1`, the results for the Ratio in test [1] and in test [2] were 0.25 and 0.1, respectively.

Consider `O=C(Cc1cccs1)N[C@@H]1C(=O)N2C(C(=O)[O-])=C(C[n+]3ccccc3)CS[C@H]12`, for which the Ratio was determined as 4.82 in test [1] and 3.8 in test [2].

Turning to `CC(C)(O/N=C(\C(=O)N[C@@H]1C(=O)N2C(C(=O)[O-])=C(C[n+]3ccccc3)CS[C@H]12)c1csc(N)n1)C(=O)O`, the Ratio in test [1] was 0.0186; in test [2], 0.0038.

As for `C[C@H]1[C@H](NC(=O)/C(=N\OC(C)(C)C(=O)O)c2csc(N)n2)C(=O)N1S(=O)(=O)O`, the Ratio in test [2] was 0.084.

For `CC1(C)S[C@@H]2[C@H](NC(=O)[C@H](N)c3ccc(O)cc3)C(=O)N2[C@H]1C(=O)O`, the Ratio in test [2] was 9.4.

As for `CO/N=C(\C(=O)N[C@@H]1C(=O)N2C(C(=O)O)=C(COC(C)=O)CS[C@H]12)c1csc(N)n1`, the Ratio in test [1] stood at 6.77; in test [2], 0.5.

On to `CCN1CCN(C(=O)N[C@@H](C(=O)N[C@@H]2C(=O)N3[C@@H]2SC(C)(C)[C@@H]3C(=O)O)c2ccccc2)C(=O)C1=O`, for which, in test [2], the Ratio was 8.4.

As to `CC1(C)S[C@@H]2[C@H](NC(=O)Cc3ccccc3)C(=O)N2[C@H]1C(=O)O`, the Ratio is 5.4 in test [1] and 11.8 in test [2].
